Key:
SF126 = experiment: Cell viability (CellTiter-Glo), SF126; assay type: cell-based; conditions: Homo sapiens, SF-126; SF126 cell line, 3-4 days of culture
Description: (§1) Cell viability was detected using the Promega CellTiter-Glo kit, the kit reflected cell viability by directly measuring intracellular ATP content. The inhibitory effect (IC50 value) of Gboxin, a mitochondrial oxidative phosphorylation pathway inhibitor, on different tumor cell lines was tested in the Example. The name, source, and culture condition of each tumor cell line were as follows: Cell line SF126 (JCRB, No. IFO50286) was cultured in 10% fetal bovine serum-containing EMEM medium (+P/S). […] Cell viability was detected using the Promega CellTiter-Glo kit, the kit reflected cell viability by directly measuring intracellular ATP content.

[1] = system: mitochondrial oxidative phosphorylation pathway; experiment: Oxygen consumption of NCI-H82 cell, Seahorse XFe metabolic analyzer; assay type: cell-based, human; conditions: detection within 0.5 h, compared with control group, FIG. 1 (n=3)
Source text: The oxygen was mainly consumed by mitochondrial oxidative phosphorylation pathway in the cell, thus the determination of oxygen consumption rate (OCR) of mitochondria could directly reflect the activity of mitochondrial oxidative phosphorylation pathway. The oxygen consumption of NCI-H82 cell in the presence or absence of Oligomycin A, Gboxin, S-Gboxin and IACS-010759, mitochondrial oxidative phosphorylation pathway inhibitors, was detected using Seahorse XFe metabolic analyzer in the present Example. NCI-H82 cell (ATCC, No. […] The control group in absence of mitochondrial oxidative phosphorylation pathway inhibitor was set. The detection of cell oxygen consumption was finished within 0.5 h.

GB-1 = experiment: Cell viability (CellTiter-Glo), GB-1; assay type: cell-based; conditions: Homo sapiens; GB-1 cell line, 3-4 days of culture
Description: Cell viability was detected using the Promega CellTiter-Glo kit, the kit reflected cell viability by directly measuring intracellular ATP content. The inhibitory effect (IC50 value) of Gboxin, a mitochondrial oxidative phosphorylation pathway inhibitor, on different tumor cell lines was tested in the Example. The name, source, and culture condition of each tumor cell line were as follows:
Cell line GB-1 (JCRB, No. IFO50489) was cultured in 10% fetal bovine serum-containing DMEM medium (+P/S).
The above tumor cells were cultured in the relevant medium (+P/S), and incubated for 3 h, then the gradient diluted Gboxin was added, and IC50 (50% inhibiting concentration) was measured after 3-4 days of culture.
Cell viability was detected using the Promega CellTiter-Glo kit, the kit reflected cell viability by directly measuring intracellular ATP content. In this experiment, the IC50 values of Oligomycin A or IACS-010759, a mitochondrial oxidative phosphorylation pathway inhibitor, on different tumor cells was determined.
The different tumor cells were cultured in the relevant medium (+P/S) as shown in Example 2, and incubated for 3 h, then the gradient diluted Oligomycin A or IACS-010759 was added respectively, and IC50 (50% inhibiting concentration) of Oligomycin A or IACS-010759 on different tumor cells was measured after 3-4 days of culture.

G-401 = experiment: Cell viability (CellTiter-Glo), G-401; assay type: cell-based; conditions: Homo sapiens; G-401 cell line, 3-4 days of culture
Description: as §1, with “G-401 (ATCC,” for “SF126 (JCRB,”, “CRL-1441)” for “IFO50286)”, “McCoy's 5a” for “EMEM”

786-O = experiment: Cell viability (CellTiter-Glo), 786-O; assay type: cell-based; conditions: Homo sapiens, 786-0; 786-O cell line, 3-4 days of culture
Description: as §1, with “786-O (ATCC,” for “SF126 (JCRB,”, “CRL-1932)” for “IFO50286)”, “RPMI1640” for “EMEM”

SW48 = experiment: Cell viability (CellTiter-Glo), SW48; assay type: cell-based; conditions: Homo sapiens; SW48 cell line, 3-4 days of culture
Description: as §1, with “SW48 (ATCC,” for “SF126 (JCRB,”, “CCL-231)” for “IFO50286)”, “Leibovitz's L-15” for “EMEM”

MDA-MB-453 = experiment: Cell viability (CellTiter-Glo), MDA-MB-453; assay type: cell-based; conditions: Homo sapiens; MDA-MB-453 cell line, 3-4 days of culture
Description: as §1, with “MDA-MB-453 (ATCC,” for “SF126 (JCRB,”, “HTB-131)” for “IFO50286)”, “Leibovitz's L-15” for “EMEM”

[2] = system: brain tumors and acute myeloid leukemia; conditions: study published in Nature Medicine (2018); cited from earlier work
WSU-DLCL2 = experiment: Cell viability (CellTiter-Glo), WSU-DLCL2; assay type: cell-based; conditions: Homo sapiens, WSUDLCL2; WSU-DLCL2 cell line, 3-4 days of culture
Description: as §1, with “WSU-DLCL2 (DSMZ,” for “SF126 (JCRB,”, “ACC-575)” for “IFO50286)”, “RPMI1640” for “EMEM”

NCI-H82 = experiment: Cell viability (CellTiter-Glo), NCI-H82; assay type: cell-based; conditions: Homo sapiens; NCI-H82 cell line, 3-4 days of culture
Description: as §1, with “NCI-H82 (ATCC,” for “SF126 (JCRB,”, “HTB-175)” for “IFO50286)”, “RPMI1640” for “EMEM”

CFPAC-1 = experiment: Cell viability (CellTiter-Glo), CFPAC-1; assay type: cell-based; conditions: Homo sapiens; CFPAC-1 cell line, 3-4 days of culture
Description: as §1, with “CFPAC-1 (ATCC,” for “SF126 (JCRB,”, “CRL-1918)” for “IFO50286)”, “IMDM” for “EMEM”

CFPAC-1 tumor = experiment: Subcutaneous CFPAC-1 tumor-bearing nude mice; assay type: in vivo; conditions: nude mice inoculated with CFPAC-1; 10 mg/kg/day intraperitoneally; vs solvent vehicle; FIG. 27
Source text: (§2) To verify whether cells sensitive to mitochondrial oxidative phosphorylation pathway […] still maintained the sensitivity to oxidative phosphorylation pathway inhibitors in vivo, S-Gboxin was used to test the effectiveness in tumor-bearing mice subcutaneously inoculated with sensitive cells (NCI-H82) and insensitive cells (CFPAC-1).
(§3) 5×10^6 of NCI-H82, NCI-H82-NNMT^ov (inserting the NNMT gene into NCI-H82 cell using a viral vector to overexpress NNMT protein) and CFPAC-1 tumors were subcutaneously inoculated in nude mice to establish tumor-bearing mice. Each group of tumor-bearing mice was injected intraperitoneally with the S-Gboxin (a mitochondrial oxidative phosphorylation pathway inhibition) at a dose of 10 mg/kg/day, the inhibition effect of S-Gboxin on the tumor was investigated. The mice in control group was injected intraperitoneally with solvent vehicle in the same method, and the tumor volume was calculated as follows: tumor volume=½ length×width 2. The experiment result was shown in FIG. 25, FIG. 26, and FIG. 27.

NCI-H82 tumor = experiment: Subcutaneous NCI-H82 tumor-bearing nude mice; assay type: in vivo; conditions: nude mice inoculated with NCI-H82; 10 mg/kg/day intraperitoneally; vs solvent vehicle; FIG. 25
Source text: as §2, §3

NCI-H82-NNMT^ov tumor = experiment: Subcutaneous NCI-H82-NNMT^ov tumor-bearing nude mice; assay type: in vivo; conditions: nude mice inoculated with NCI-H82-NNMT^ov; 10 mg/kg/day intraperitoneally; compared with effect on NCI-H82 tumor; FIG. 26
Source text: as §2, §3

**Q.** Which results are given for `Cc1nc(-c2nc(-c3ccc(OC(F)(F)F)cc3)no2)nn1Cc1cccc(N2CCC(S(C)(=O)=O)CC2)c1` [IACS-010759]?
**A.** IC50 (SF126): > 15 µM; oxygen consumption of NCI-H82 cells ([1]; 1 μM inhibitor): significantly inhibit; IC50 (GB-1): > 15 µM; IC50 (G-401): 1.48 µM; IC50 (786-O): > 50 µM; IC50 (SW48): < 0.01 µM; IC50 (MDA-MB-453): < 0.01 µM; inhibitory effect on brain tumors and acute myeloid leukemia [2]: excellent inhibitory effect; IC50 (WSU-DLCL2): 3.56 µM; IC50 (NCI-H82): 0.168 µM; IC50 (CFPAC-1): 55.7 µM

**Q.** For `CC(C)[C@@H]1CC[C@@H](C)C[C@H]1OC(=O)Cn1c(-c2cccc(C(F)(F)F)c2)[n+](C)c2ccccc21.[I-]` [S-Gboxin], which “oxygen consumption of NCI-H82 cells” value ([1]; 5 μM inhibitor) is on record?
**A.** The value was “significantly inhibit”.

**Q.** And the “inhibitory effect on subcutaneous tumor (tumor volume)” value (CFPAC-1 tumor)?
**A.** The value was “no significant inhibitory effect”.

**Q.** And the “inhibition of subcutaneous tumor (tumor volume)” value (NCI-H82 tumor)?
**A.** The value was “significantly inhibit”.

**Q.** And the “inhibitory effect on subcutaneous tumor (tumor volume)” value (NCI-H82-NNMT^ov tumor)?
**A.** The value was “significantly weaker”.

Source: patent publication US20230355647A1, “Marker for determining anti-cancer effects of mitochondrial oxidative phosphorylation pathway inhibitor” (NANJING SHIJIANG MEDICINE TECHNOLOGY CO., LTD, priority 2020, published 2023)
